Several values for one entry are separate records, joined by “and”; a condition that tells them apart may be missing. Identical values can stand only once. Toxic doses and inconclusive results are not listed.

The test system of the test is P388 leukemia ip, CD2F1 mice, survival T/C. As to the kind of experiment: NCI In Vivo Anticancer Drug Screen. Data for tumor model P388 Leukemia (intraperitoneal) in CD2F1 (CDF1) mice. Conditions: endpoint: median survival time, higher = longer survival. In short, it runs like this: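 Mice carrying the transplanted tumor received test compound or vehicle. Survival was recorded in each group, and the value is the treated-group measurement divided by that of the vehicle-treated control group.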

Where [1] appears, read: dose: 50.0 mg/kg/injection, schedule: Q01DX009 (ip), vehicle: saline.
Setting [2] is: dose: 100.0 mg/kg/injection, schedule: Q01DX005 (ip), vehicle: saline.
[3] abbreviates: dose: 100.0 mg/kg/injection, schedule: Q01DX009 (ip), vehicle: saline.
The mark [4] stands for this setting: dose: 200.0 mg/kg/injection, schedule: Q01DX005 (ip), vehicle: saline.
The mark [5] stands for this setting: dose: 200.0 mg/kg/injection, schedule: Q01DX009 (ip), vehicle: saline.
Setting [6] is: dose: 50.0 mg/kg/injection, schedule: Q01DX005 (ip), vehicle: Klucel (hydroxypropylcellulose) (HPC).
Where [7] appears, read: dose: 100.0 mg/kg/injection, schedule: Q01DX005 (ip), vehicle: Klucel (hydroxypropylcellulose) (HPC).
The mark [8] stands for this setting: dose: 200.0 mg/kg/injection, schedule: Q01DX005 (ip), vehicle: Klucel (hydroxypropylcellulose) (HPC).
[9] abbreviates: dose: 6.25 mg/kg/injection, schedule: Q01DX009 (ip), vehicle: saline with Tween-80.
Where [10] appears, read: dose: 12.5 mg/kg/injection, schedule: Q01DX009 (ip), vehicle: saline with Tween-80.

In the case of `Nc1c(Cl)c(Cl)cc(Cl)c1Cl`, the T/C by setting is: (dose: 100.0 mg/kg/injection, schedule: Q04DX003 (ip), vehicle: saline with Tween-80) 100 % of control; (dose: 200.0 mg/kg/injection, schedule: Q04DX003 (ip), vehicle: saline with Tween-80) 104 % of control; (dose: 400.0 mg/kg/injection, schedule: Q04DX003 (ip), vehicle: saline with Tween-80) 104 % of control.

In the case of `ClCC[N+]12CC[N+](CCCl)(CC1)C2` (tested in a mixture with another compound), the T/C by setting is: (dose: 12.5 mg/kg/injection, schedule: Q01DX009 (ip), vehicle: water) 105 % of control and 118 % of control; (dose: 25.0 mg/kg/injection, schedule: Q01DX005 (ip), vehicle: saline) 116 % of control; (dose: 25.0 mg/kg/injection, schedule: Q01DX009 (ip), vehicle: water) 119 % of control; under setting [1], 159 % of control and 171 % of control; (dose: 50.0 mg/kg/injection, schedule: Q01DX009 (ip), vehicle: water) 150 % of control; under setting [2], 162 % of control and 168 % of control. Besides, the T/C reads like this: under setting [3], 197 % of control and 198 % of control; (dose: 100.0 mg/kg/injection, schedule: Q01DX009 (ip), vehicle: water) 160 % of control and 196 % of control; under setting [4], 161 % of control and 212 % of control; under setting [5], 240 % of control and 263 % of control; (dose: 200.0 mg/kg/injection, schedule: Q01DX009 (ip), vehicle: water) 188 % of control; (dose: 400.0 mg/kg/injection, schedule: Q01DX009 (ip), vehicle: saline) 281 % of control and 296 % of control.

Turning to `Cc1cc(=O)[nH]c2c1ccc1ccccc12`, the T/C reads like this: (dose: 100.0 mg/kg/injection, schedule: Q04DX002 (ip), vehicle: saline with Tween-80) 95 % of control; (dose: 200.0 mg/kg/injection, schedule: Q04DX002 (ip), vehicle: saline with Tween-80) 93 % of control; (dose: 400.0 mg/kg/injection, schedule: Q04DX002 (ip), vehicle: saline with Tween-80) 99 % of control.

As to `C[CH2][Sn]1([Cl])[O]CCNCC[O]1`, the T/C was 103 % of control (dose: 25.0 mg/kg/injection, schedule: Q01DX005 (ip), vehicle: Klucel (hydroxypropylcellulose) (HPC)); 103 % of control and 113 % of control under setting [6]; 116 % of control under setting [7]; 122 % of control under setting [8].

For the compound `COc1ccc(C2CC(=O)N(CN3CCN(c4ccc(Cl)cc4)CC3)C(=O)C2)cc1`, the T/C runs as follows: under setting [9], 94 % of control; under setting [10], 94 % of control; (dose: 25.0 mg/kg/injection, schedule: Q01DX009 (ip), vehicle: saline with Tween-80) 91 % of control; (dose: 200.0 mg/kg/injection, schedule: Q01DX009 (ip), vehicle: saline with Tween-80) 92 % of control.

Consider `CCOC(=O)C(C)(CCC(C)=O)C(=O)OCC`, for which the T/C reads like this: (dose: 60.0 mg/kg/injection, schedule: Q01DX005 (ip), vehicle: saline) 100 % of control; (dose: 120.0 mg/kg/injection, schedule: Q01DX005 (ip), vehicle: saline) 99 % of control; (dose: 240.0 mg/kg/injection, schedule: Q01DX005 (ip), vehicle: saline) 108 % of control.

As for `NC(CC(=O)O)P(=O)(O)O` (stereo not given), the T/C by setting is: under setting [1], 93 % of control; under setting [3], 98 % of control; under setting [5], 107 % of control.

With `CN(C/C=C/CN(C)C(=O)Nc1ccccc1)C(=O)Nc1ccccc1`, the T/C under setting [1] was 96 % of control, the T/C under setting [3] was 100 % of control and the T/C under setting [5] was 89 % of control.

On to `c1ccc2c(c1)[nH]c1c2c[n+]2c3c(cccc13)CCC2`, for which the T/C was 115 % of control (dose: 8.33 mg/kg/injection, schedule: Q01DX009 (ip), vehicle: saline) and 95 % of control (dose: 18.7 mg/kg/injection, schedule: Q01DX009 (ip), vehicle: saline).

With `COc1ccc(C(=O)[Se][Se]C(=O)c2ccc(OC)cc2)cc1`, the T/C reads like this: under setting [9], 100 % of control; under setting [10], 102 % of control.

With `OC1(Cc2ccc(F)cc2)CCCCCC1`, the T/C under setting [6] is 102 % of control, the T/C under setting [7] was 105 % of control and the T/C under setting [8] was 103 % of control.

On to `C=C(CC(O)c1ccccc1)C(=O)Nc1ccccc1OC` (stereo not given), for which the T/C (dose: 50.0 mg/kg/injection, schedule: Q01DX005 (ip), vehicle: saline) was 98 % of control; the T/C under setting [2] is 103 % of control; the T/C under setting [4] was 100 % of control.

`CC(=O)Nc1ccc(S(=O)(=O)/C(=C/c2ccc(-c3ccc(Br)cc3)o2)c2ccc([N+](=O)[O-])o2)cc1`: the T/C is 86 % of control (dose: 50.0 mg/kg/injection, schedule: Q01DX009 (ip), vehicle: suspension in saline) and 104 % of control (dose: 100.0 mg/kg/injection, schedule: Q01DX009 (ip), vehicle: suspension in saline).

Turning to `CCCCC(CC)CS(=O)(=O)OCCCCOS(=O)(=O)CC(CC)CCCC` (stereo not given), the T/C under setting [6] is 101 % of control, the T/C under setting [7] was 105 % of control and the T/C under setting [8] was 108 % of control.

For the compound `c1ccc(Cc2ccc[nH]2)cc1`, the T/C was 100 % of control (dose: 100.0 mg/kg/injection, schedule: Q01DX001 (ip), vehicle: distilled water + alcohol); 98 % of control (dose: 200.0 mg/kg/injection, schedule: Q01DX001 (ip), vehicle: distilled water + alcohol); 112 % of control (dose: 400.0 mg/kg/injection, schedule: Q01DX001 (ip), vehicle: distilled water + alcohol).

Turning to `COc1ccc2c(c1)c1ccnc3ccc(=O)n2c31`, the T/C is, setting by setting: (dose: 0.83 mg/kg/injection, schedule: Q01DX009 (ip), vehicle: saline with Tween-80) 98 % of control; (dose: 1.65 mg/kg/injection, schedule: Q01DX009 (ip), vehicle: saline with Tween-80) 109 % of control; (dose: 3.29 mg/kg/injection, schedule: Q01DX009 (ip), vehicle: saline with Tween-80) 109 % of control; (dose: 6.58 mg/kg/injection, schedule: Q01DX009 (ip), vehicle: saline with Tween-80) 109 % of control.

`O=C1CSC(c2ccccc2O)N1c1ccc(N2C(=O)CSC2c2ccccc2O)cc1` (stereo not given): the T/C is 90 % of control (dose: 100.0 mg/kg/injection, schedule: Q01DX001 (ip), vehicle: saline with Tween-80); 87 % of control (dose: 200.0 mg/kg/injection, schedule: Q01DX001 (ip), vehicle: saline with Tween-80); 87 % of control (dose: 400.0 mg/kg/injection, schedule: Q01DX001 (ip), vehicle: saline with Tween-80).

These data come from PubChem BioAssay AID330 (DTP/NCI, 2004).
